Data published in paper PMC5789083, “Mechanisms driving the antibacterial and antibiofilm properties of Hp1404 and its analogue peptides against multidrug-resistant Pseudomonas aeruginosa” (Scientific Reports, 2018).
Where no end group is shown, it is not given here.

Key:
[1] = system: P. aeruginosa ATCC 27853; experiment: Time-killing assay; format: cell-based, Pseudomonas aeruginosa; conditions: at 2 hours; 2× MIC, P. aeruginosa ATCC 27853, 2 × 10^5 CFU/mL, colony counts in triplicate
From the text: Peptide synthesis and purification. The peptides were s ynthesized using the solid- phase-9-fluorenylmethoxycarbonyl (Fmoc) method, as reported previously1, on a Rink amide 4-methylbenzhydrylamine resin, using a Liberty microwave peptide synthesizer (CEM, Matthews, NY, USA). The following chemicals were us ed as linkage reagents: 0.45 M 2- (1H - benzotriazole-1- yil)-1,1,3,3- tetramethyluronium hexafluorophosphate (HBTU) diluted in dimethylformamide (DMF), 0.1 M N -hydroxybenzotriazole (HOBt) diluted in piperidine/DMF, and 2 M N ,N -diisopropyleth ylamine (DIEA) diluted in N -methylp yrrolidone (NMP). After washing with dichloromethane (DCM), cleavage was performed by incubating for 2 h at 25 °C in a trifluoroacetic acid (TFA) solution containing water, phenol, and triisopropylsilane. The crude peptide was precipitated by dilution with ice-cold diethyl ether, then spread on the tube wall, and dried. After resuspension in 25 °C water, the peptide was purified by reversed phase high- performance liquid chromatograph y (RP-HP LC) on a Jupiter C18 column (4.6 × 250 mm, 300 Å, 5 µm; Phenomenex, Torrance, CA, USA). […]
(§1) Ti me -killing assay. […] After an 18- h incubation, the colonies were counted and aver age counts wer e determined.
(§2) Calcein leakage assay. […] The fluorescence generated from the […]

[2] = Calcein leakage assay, PC:CH:SM LUVs; conditions: PC:CH:SM (1:1:1, w/w) LUVs mimicking mammalian cell membranes (Fig. S4)
From the text: Peptide synthesis and purification. The peptides were s ynthesized using the solid- phase-9-fluorenylmethoxycarbonyl (Fmoc) method, as reported previously1, on a Rink amide 4-methylbenzhydrylamine resin, using a Liberty microwave peptide synthesizer (CEM, Matthews, NY, USA). The following chemicals were us ed as linkage reagents: 0.45 M 2- (1H - benzotriazole-1- yil)-1,1,3,3- tetramethyluronium hexafluorophosphate (HBTU) diluted in dimethylformamide (DMF), 0.1 M N -hydroxybenzotriazole (HOBt) diluted in piperidine/DMF, and 2 M N ,N -diisopropyleth ylamine (DIEA) diluted in N -methylp yrrolidone (NMP). […]
as §1, §2
(§3) released calcein was measured at an excitation wavelength of 480 nm and an emission […]
(§4) PI uptake assay. Bacteri al membrane damage was assessed through monitoring the changes in fluorescence generated by the propidium iodide (P I) dye, as described previousl y4. […] PI fluorescence was monitored at an excitation wavelength of 580 nm and emission wavelength of 620 nm, using a micropl ate reader (Molecular Devices Co., Sunnyvale, CA, USA), during 30 min.

[3] = system: mouse red blood cells; experiment: Hemolytic activity; format: cell-based; conditions: 8% mouse RBCs in PBS, 37 °C, 1 h, A414, triplicate
Method: The hemolytic activities of the peptides were determined as previously described. Fresh mouse red blood cells (RBCs) were washed and diluted to 8% with PBS. RBC suspension was added to 96-well plates (100 µL/well), mixed with an equal volume of serially diluted peptides, and incubated at 37 °C for 1 h with gentle shaking. The plate was centrifuged and the supernatant was transferred to a 96-well plate. The absorbance at 414 nm was measured with a Versa-Max ELISA reader (Molecular Devices). PBS and 0.1% Triton X-100 were used as negative and positive controls, respectively. The experiment was performed in triplicate. The hemolysis rate was calculated using the following formula[55]: % Hemolysis = [(Abs 414 nm in the peptide solution-Abs 414 nm in PBS)/(Abs 414 nm in 0.1% Triton X-100-Abs 414 nm in PBS)] × 100

[4] = system: trypsin; experiment: Trypsin stability assay; format: in vitro ADME; conditions: trypsin (25 nM) in sodium phosphate buffer, 20 µg peptide in 100 µL 10 mM sodium phosphate buffer pH 7.4 with 25 nM trypsin, 37 °C, RP-HPLC peak area of native peptide (C18), repeated three times, read-out: remaining peptide after trypsin treatment
Method: Each sample with trypsin was analysed by RT-HPLC on a Jupiter C18 column (4.6 × 250 mm, 300 Å, 5 µm; Phenomenex). Stability was expressed as the percentage of remaining peptide, which in turn was determined by comparing the HPLC peak areas, corresponding to the peak detected for the native peptide, before and after trypsin treatment. […]
as §3
Trypsin stability assay. Peptides were treated with trypsin, and results were ev aluated usin g RP-HP LC, as described previously3. Briefly, 20 µ g of peptide was mixed with 100 µ L of 10 mM sodium phosphate buffer (pH 7.4) containing 25 nM trypsin (Sigma-Aldrich), and incubated at 37 °C for 1 h or 2 h. A fter incubation, 20 µL of each sampl e was anal ysed b y RT-HP LC on a J upiter C18 column (4.6 × 250 m m, 300 Å, 5 µm; Phenomenex).
as §4, with “y4. Briefl y, P. aeruginosa ATCC 27853 was grown in NB to logarithmic phase of growth, and then diluted to OD600 = 0.25 in 10 mM sodium phosphate (pH 7.2) buffer with 10 % medium.” for “y4.”

[5] = system: mammalian cells; conditions: at concentrations below 50 µM; cited from earlier work
Method: In a previous study, Hp1404 was purified from the venomous gland of the scorpion Heterometrus petersii. […] Moreover, it is not toxic to mammalian cells at concentrations below 50 µM[20].

Row | Substance | bacteria killed [1] | toxicity by calcein leakage assay [2] | hemolysis rate ([3]; 12.5 µM) | hemolysis rate ([3]; 25 µM) | hemolysis rate ([3]; 50 µM) | hemolysis rate ([3]; 100 µM) | hemolysis rate ([3]; 200 µM) | remaining at 2 h, 0.2 mg/mL [4] | toxicity to mammalian cells [5]
1 | ILKKLLKKVKKI-NH2 [Hp1404-T1e] | 85% | not toxic | – | – | – | – | – | – | –
2 | GILGKLWEGVKSIF-NH2 [Hp1404] | – | – | 2% | 11% | 55% | 92% | 100% | 50% | not toxic
